Results on ten compounds are retold here after patent publication US20080274892A1, “Novel Haloalkylsulfonanilide Derivative, Herbicide, and Method of Use Thereof” (priority 2005, published 2008).

The structures appear in SMILES notation.

For data set [1], the system named is transplanted paddy rice plant and Bulrush. Kind of data set: Test Example 5: selectivity between transplanted paddy rice plant and weeds. Particulars: (highest dosage with no phytotoxicity to paddy rice)/(lowest dosage with effective level 4 on Bulrush); rice 3000-100 g/ha, Bulrush 300-10 g/ha; 21 days. The class given is in vivo. Summed up:
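Transplanted paddy rice was treated at 3000, 1000, 300 and 100 g/ha active ingredient for phytotoxicity, and post-emergence bulrush at 300, 100, 30 and 10 g/ha. Plants were kept in a hothouse for 21 days. Growth inhibition versus untreated control was scored 0–4 (0%, 1–39%, 40–69%, 70–89%, 90–100%).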

In data set [2] the test system is false pimpernel. Kind of data set: Test Example 1: herbicidal efficacy on rice paddy weeds pre-emergence. The class given is in vivo, Lindernia pyxidaria. As to conditions: dosage 1000 g/ha, 21 days.
Data set [3] has as its system false pimpernel. Kind of data set: Test Example 2: herbicidal efficacy on rice paddy weeds post-emergence. The class given is in vivo, Lindernia pyxidaria. As to conditions: dosage 1000 g/ha; post-emergence, one leaf stage; 21 days after treatment.
Data set [4] relates to bulrush. Kind of data set: Test Example 1: herbicidal efficacy on rice paddy weeds pre-emergence. The class given is in vivo, Scirpus juncoides. Particulars: dosage 1000 g/ha, 21 days.
The subject of data set [5] is bulrush. Kind of data set: Test Example 4: low dosage test for rice paddy weeds. The class given is in vivo, Scirpus juncoides. Particulars: 300 g/ha as an active ingredient; plants treated at the one leaf stage; 21 days after treatment; vs untreated control. A digest of the protocol: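 Bulrush sown in clay loam pots, flooded to 5 cm water in a hot house, treated at the one-leaf stage with formulated compound at 300 g/ha. Efficacy scored 0–4 against untreated control 21 days after treatment (4 = 90–100%, 0 = 0% inhibition).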

Data set [6] has as its system bulrush. Kind of data set: Test Example 2: herbicidal efficacy on rice paddy weeds post-emergence. The class given is in vivo, Scirpus juncoides. As to conditions: dosage 1000 g/ha; post-emergence, one leaf stage; 21 days after treatment.
In a further data set the test system is barnyard glass. The description is as above. The class given is in vivo, Echinochloa crus-galli. As to conditions: dosage 1000 g/ha; post-emergence, one leaf stage; 21 days after treatment. A digest of the protocol: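 Plastic pots of 75 cm^2 were filled with clay loam soil and sown with barnyard glass and bulrush seeds, then topped with 75 cm^3 soil containing false pimpernel seeds. The pots were flooded to 5 cm water depth and held in a hot house. Twenty-one days after treatment, herbicidal efficacy was graded against an untreated control.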

Data set [7] deals with paddy rice plant (cultivar: Nihonbare). Kind of data set: Test Example 3: phytotoxicity test for transplanted paddy rice plant. It is filed as in vivo. Particulars: dosage 1000 g/ha; transplanted rice, treated 5 days after transplantation; 21 days after treatment. A digest of the protocol:
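Clay loam soil was placed in a 75 cm^2 plastic pot and flooded to a water depth of 5 cm. Two Nihonbare paddy rice plants at the two-leaf stage were transplanted 1 cm deep and grown in a hot house. After treatment, pots stayed in the hot house for 21 days, and phytotoxicity was then graded against an untreated control.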

Turning to `CCCOC(=O)N(c1ccccc1CN1CC(CC)(CC)OC1=O)S(=O)(=O)C(F)(F)F` [1-98], the “Selective Index” value in data set [1] is recorded as 10. In the data set on false pimpernel [2], the “False pimpernel pre (herbicidal efficacy grade)” value (shortened to “False pimpernel pre”) was 4 (90%-100% of herbicidal efficacy or phytotoxicity). Besides, in the data set on false pimpernel [3], the “False pimpernel post (herbicidal efficacy grade)” value (from here on “False pimpernel post”) was 4 (90%-100% of herbicidal efficacy or phytotoxicity). The “Bulrush pre (herbicidal efficacy grade)” value in the data set with bulrush [4] is recorded as 4 (90%-100% of herbicidal efficacy or phytotoxicity). The “Herbicide effect to Bulrush” value with bulrush [5] is listed as 4 (90%-100% of herbicidal efficacy or phytotoxicity). Besides, the “Bulrush post (herbicidal efficacy grade)” value with bulrush [6] was 4 (90%-100% of herbicidal efficacy or phytotoxicity). In addition, the “Burnyard grass post (herbicidal efficacy grade)” value (from here on “Burnyard grass post”) in the data set with barnyard glass was 4 (90%-100% of herbicidal efficacy or phytotoxicity). In addition, the “Phytotoxicity to paddy rice” value in data set [7] is 1 (1%-39% of herbicidal efficacy or phytotoxicity).
Take `COC(=O)N(c1ccccc1CN1CC(C)(c2ccccc2)OC1=O)S(=O)(=O)C(F)(F)F` (centres unmarked) [1-142]: the “Selective Index” value in data set [1] is reported as “≧30”. Besides, the “False pimpernel pre” value in the data set with false pimpernel [2] was 4 (90%-100% of herbicidal efficacy or phytotoxicity). Besides, the “False pimpernel post” value in the data set with false pimpernel [3] is 4 (90%-100% of herbicidal efficacy or phytotoxicity). Moreover, the “Bulrush pre (herbicidal efficacy grade)” value in the data set on bulrush [4] is given as 4 (90%-100% of herbicidal efficacy or phytotoxicity). In addition, the “Herbicide effect to Bulrush” value with bulrush [5] was 4 (90%-100% of herbicidal efficacy or phytotoxicity). Further, the “Bulrush post (herbicidal efficacy grade)” value with bulrush [6] is recorded as 4 (90%-100% of herbicidal efficacy or phytotoxicity). For the same compound, the “Burnyard grass post” value with barnyard glass is reported as 4 (90%-100% of herbicidal efficacy or phytotoxicity). For the same compound, the “Phytotoxicity to paddy rice” value in data set [7] is given as 1 (1%-39% of herbicidal efficacy or phytotoxicity).
As to `CCC1(CC)CN(Cc2ccccc2N(C(=O)OCCOC)S(=O)(=O)C(F)(F)F)C(=O)O1` [1-134], the “Selective Index” value in data set [1] is 10. For the same compound, in the data set with false pimpernel [2], the “False pimpernel pre” value is listed as 4 (90%-100% of herbicidal efficacy or phytotoxicity). In addition, the “False pimpernel post” value in the data set with false pimpernel [3] was 4 (90%-100% of herbicidal efficacy or phytotoxicity). Besides, in the data set on bulrush [4], the “Bulrush pre (herbicidal efficacy grade)” value is given as 4 (90%-100% of herbicidal efficacy or phytotoxicity). Further, the “Herbicide effect to Bulrush” value with bulrush [5] was 4 (90%-100% of herbicidal efficacy or phytotoxicity). Besides, the “Bulrush post (herbicidal efficacy grade)” value in the data set on bulrush [6] is 4 (90%-100% of herbicidal efficacy or phytotoxicity). The “Burnyard grass post” value in the data set on barnyard glass is listed as 4 (90%-100% of herbicidal efficacy or phytotoxicity). For the same compound, in data set [7], the “Phytotoxicity to paddy rice” value is 1 (1%-39% of herbicidal efficacy or phytotoxicity).
Regarding `CCC1(CC)CN(Cc2ccccc2N(C(=O)OC)S(=O)(=O)C(F)(F)F)C(=S)O1` [1-183], the “Selective Index” value in data set [1] is 10. Further, the “False pimpernel pre” value in the data set with false pimpernel [2] is recorded as 4 (90%-100% of herbicidal efficacy or phytotoxicity). For the same compound, the “False pimpernel post” value with false pimpernel [3] is 4 (90%-100% of herbicidal efficacy or phytotoxicity). For the same compound, the “Bulrush pre (herbicidal efficacy grade)” value with bulrush [4] is listed as 4 (90%-100% of herbicidal efficacy or phytotoxicity). Besides, in the data set on bulrush [5], the “Herbicide effect to Bulrush” value is 4 (90%-100% of herbicidal efficacy or phytotoxicity). In addition, the “Bulrush post (herbicidal efficacy grade)” value in the data set on bulrush [6] is 4 (90%-100% of herbicidal efficacy or phytotoxicity). For the same compound, the “Burnyard grass post” value with barnyard glass was 4 (90%-100% of herbicidal efficacy or phytotoxicity). In data set [7], the “Phytotoxicity to paddy rice” value is 1 (1%-39% of herbicidal efficacy or phytotoxicity).
Regarding `CCC1(CC)CN(Cc2ccccc2NS(=O)(=O)C(F)(F)F)C(=S)O1` [1-178], in data set [1], the “Selective Index” value is listed as 10. For the same compound, in the data set with false pimpernel [2], the “False pimpernel pre” value is 4 (90%-100% of herbicidal efficacy or phytotoxicity). For the same compound, the “False pimpernel post” value in the data set on false pimpernel [3] is given as 4 (90%-100% of herbicidal efficacy or phytotoxicity). Besides, in the data set with bulrush [4], the “Bulrush pre (herbicidal efficacy grade)” value was 4 (90%-100% of herbicidal efficacy or phytotoxicity). The “Herbicide effect to Bulrush” value in the data set with bulrush [5] is recorded as 4 (90%-100% of herbicidal efficacy or phytotoxicity). Further, in the data set on bulrush [6], the “Bulrush post (herbicidal efficacy grade)” value is 4 (90%-100% of herbicidal efficacy or phytotoxicity). Also, the “Burnyard grass post” value in the data set with barnyard glass is listed as 4 (90%-100% of herbicidal efficacy or phytotoxicity). In addition, the “Phytotoxicity to paddy rice” value in data set [7] is listed as 1 (1%-39% of herbicidal efficacy or phytotoxicity).
As to `CC(C)COC(=O)N(c1ccccc1CN1CC(C)OC1=S)S(=O)(=O)C(F)(F)F` (centres unmarked) [Compound No. 1-22, 5-methyl-3-{2-[N-(isobutoxycarbonyl)-N-(trifluoromethanesulfonyl)amino]benzyl}-2-oxazolidinethione], the “Selective Index” value in data set [1] was 33. Moreover, the “False pimpernel pre” value in the data set with false pimpernel [2] is given as 4 (90%-100% of herbicidal efficacy or phytotoxicity). In addition, the “False pimpernel post” value in the data set with false pimpernel [3] is 4 (90%-100% of herbicidal efficacy or phytotoxicity). The “Bulrush pre (herbicidal efficacy grade)” value in the data set on bulrush [4] is reported as 4 (90%-100% of herbicidal efficacy or phytotoxicity). In addition, the “Herbicide effect to Bulrush” value with bulrush [5] was 4 (90%-100% of herbicidal efficacy or phytotoxicity). Also, the “Bulrush post (herbicidal efficacy grade)” value in the data set with bulrush [6] was 4 (90%-100% of herbicidal efficacy or phytotoxicity). For the same compound, the “Burnyard grass post” value with barnyard glass is given as 4 (90%-100% of herbicidal efficacy or phytotoxicity). In data set [7], the “Phytotoxicity to paddy rice” value is reported as 0 (0% of herbicidal efficacy or phytotoxicity).
`CCCCOC(=O)N(c1ccccc1CN1CC(C)(C2CC2)OC1=O)S(=O)(=O)C(F)(F)F` (racemic) [1-113]: the “Selective Index” value in data set [1] was 30. The “False pimpernel pre” value with false pimpernel [2] was 4 (90%-100% of herbicidal efficacy or phytotoxicity). In addition, the “False pimpernel post” value in the data set with false pimpernel [3] is 4 (90%-100% of herbicidal efficacy or phytotoxicity). The “Bulrush pre (herbicidal efficacy grade)” value in the data set with bulrush [4] is on record as 4 (90%-100% of herbicidal efficacy or phytotoxicity). Moreover, the “Herbicide effect to Bulrush” value with bulrush [5] was 4 (90%-100% of herbicidal efficacy or phytotoxicity). In addition, in the data set with bulrush [6], the “Bulrush post (herbicidal efficacy grade)” value is given as 4 (90%-100% of herbicidal efficacy or phytotoxicity). Moreover, in the data set with barnyard glass, the “Burnyard grass post” value is given as 4 (90%-100% of herbicidal efficacy or phytotoxicity). The “Phytotoxicity to paddy rice” value in data set [7] was 1 (1%-39% of herbicidal efficacy or phytotoxicity).
For the compound `CCCOC(=O)N(c1ccccc1CN1CC(C)(C)OC1=O)S(=O)(=O)C(F)(F)F` [1-75], the “Selective Index” value in data set [1] was “≧30”. In the data set with false pimpernel [2], the “False pimpernel pre” value is recorded as 4 (90%-100% of herbicidal efficacy or phytotoxicity). In the data set on false pimpernel [3], the “False pimpernel post” value is given as 4 (90%-100% of herbicidal efficacy or phytotoxicity). Besides, the “Bulrush pre (herbicidal efficacy grade)” value in the data set on bulrush [4] is 4 (90%-100% of herbicidal efficacy or phytotoxicity). In addition, the “Herbicide effect to Bulrush” value in the data set with bulrush [5] is reported as 4 (90%-100% of herbicidal efficacy or phytotoxicity). Moreover, the “Bulrush post (herbicidal efficacy grade)” value in the data set with bulrush [6] is recorded as 4 (90%-100% of herbicidal efficacy or phytotoxicity). Also, the “Burnyard grass post” value with barnyard glass is given as 4 (90%-100% of herbicidal efficacy or phytotoxicity). Moreover, in data set [7], the “Phytotoxicity to paddy rice” value was 1 (1%-39% of herbicidal efficacy or phytotoxicity).
As for `COC(=O)N(c1ccccc1CN1C(=O)OC(C)(C)C1C)S(=O)(=O)C(F)(F)F` (centres unmarked) [1-148], the “Selective Index” value in data set [1] is listed as “≧30”. For the same compound, the “False pimpernel pre” value with false pimpernel [2] was 4 (90%-100% of herbicidal efficacy or phytotoxicity). Besides, the “False pimpernel post” value with false pimpernel [3] is reported as 4 (90%-100% of herbicidal efficacy or phytotoxicity). For the same compound, the “Bulrush pre (herbicidal efficacy grade)” value in the data set on bulrush [4] is 4 (90%-100% of herbicidal efficacy or phytotoxicity). The “Herbicide effect to Bulrush” value in the data set on bulrush [5] was 4 (90%-100% of herbicidal efficacy or phytotoxicity). The “Bulrush post (herbicidal efficacy grade)” value with bulrush [6] is recorded as 4 (90%-100% of herbicidal efficacy or phytotoxicity). The “Burnyard grass post” value with barnyard glass was 4 (90%-100% of herbicidal efficacy or phytotoxicity). The “Phytotoxicity to paddy rice” value in data set [7] is given as 3 (70%-89% of herbicidal efficacy or phytotoxicity).
`CC(C)COC(=O)N(c1ccccc1CN1CC(C)OC1=O)S(=O)(=O)C(F)(F)F` (centres unmarked) [Compound No. 1-18]: the “Selective Index” value in data set [1] is given as 33. Also, in the data set on false pimpernel [2], the “False pimpernel pre” value is given as 4 (90%-100% of herbicidal efficacy or phytotoxicity). In addition, in the data set on false pimpernel [3], the “False pimpernel post” value is reported as 4 (90%-100% of herbicidal efficacy or phytotoxicity). For the same compound, in the data set on bulrush [4], the “Bulrush pre (herbicidal efficacy grade)” value is reported as 4 (90%-100% of herbicidal efficacy or phytotoxicity). The “Herbicide effect to Bulrush” value in the data set with bulrush [5] is listed as 4 (90%-100% of herbicidal efficacy or phytotoxicity). Further, the “Bulrush post (herbicidal efficacy grade)” value in the data set on bulrush [6] is 4 (90%-100% of herbicidal efficacy or phytotoxicity). Also, in the data set on barnyard glass, the “Burnyard grass post” value is reported as 4 (90%-100% of herbicidal efficacy or phytotoxicity). Also, the “Phytotoxicity to paddy rice” value in data set [7] is 0 (0% of herbicidal efficacy or phytotoxicity).
